Results reported in US20170196998A1, “NANOPARTICLE CONTRAST AGENT FOR EARLY DIAGNOSIS OF ALZHEIMER'S DISEASE BY MAGNETIC RESONANCE IMAGING (MRI)” (The Chinese University of Hong Kong, priority 2016, published 2017).

Assays:
amyloid plaques = amyloid plaques (Homo sapiens, UniProt P05067); assay: Confocal fluorescent and phase-contrast imaging of amyloid plaque binding on consecutive brain sections; settings: applied to consecutive sections of APP transgenic mouse brain, FIG. 5
Description: From top to bottom: Thioflavin T, curcumin, and curcumin-conjugated iron oxide.
The formulation of Curcumin-conjugated magnetic nanoparticles is described herein.

[1] = Adsorption isotherm of curcumin on iron oxide (Langmuir model); type: physicochemical; settings: room temperature, monolayer
Procedure: Based on the absorption isotherm study, curcumin preferentially binds the iron oxide surface, with a calculated maximum loading of 75 mg of curcumin per gram of iron oxide. FIGS. 2 & 3 show the adsorption isotherm and Langmuir model, which indicate that Curcumin is forming a monolayer and binds at a homogeneous site on the iron oxide surface.

Chain of amyloid plaques (P05067 672-713 limits assumed): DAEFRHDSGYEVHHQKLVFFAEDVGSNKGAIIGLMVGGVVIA

| SMILES | amyloid plaque binding (amyloid plaques) | calculated maximum loading of curcumin on iron oxide [1] |
| --- | --- | --- |
| COc1cc(/C=C/C(=O)CC(=O)/C=C/c2ccc(O)c(OC)c2)ccc1O [curcumin] | bind amyloid plaques | 75 mg of curcumin per gram of iron oxide |
| Cc1ccc2c(c1)sc(-c1ccc(N(C)C)cc1)[n+]2C.[Cl-] [Thioflavin T] | bind amyloid plaques |  |
